Common to all, as to format: cell-based, human
Data set [1] relates to HaCaT cells. In words: Cell penetration rate by flow cytometry. The settings on record: 10 μM, 37° C., 1 hour. The procedure:
(§1) HaCaT cells were inoculated at a concentration of 3×10^5 cells/well into a 6-well plate and incubated for 24 hours. Then, the cell culture medium was removed, followed by washing twice with HBSS, and replaced with an Opti-MEM medium. The cells were treated with 10 μM FITC-TAT, FITC-Spep001, FITC-Spep002 or FITC-Spep003 and incubated at 37° C. with 5% CO2 for 1 hour. […] Finally, the cells were treated with 1 mg/mL trypsin and thus separated into single cells, followed by centrifugation at 1,000 rpm for 5 minutes. The FITC fluorescence intensities of cell-penetrating peptides per living 10,000 cells were measured by performing flow cytometry (Navios Flow Cytometer by Beckman Coulter Life Sciences), and the result thereof is shown in FIG. 5A(i) to FIG. 5A(v) and FIG. 5B.

In data set [2] the test system is HaCaT cells. In words: Cell penetration by confocal laser microscope. The settings on record: 10 μM, 24 hours, compared to positive control FITC-TAT. On the procedure: HaCaT cells were inoculated at a concentration of 1.5×10^4 cells/well into an optical 96-well plate (M0562, Greiner) and incubated for 24 hours. Then, the medium was removed, followed by washing once with HBSS, and replaced with a serum-free medium. The cells were treated with 10 μM FITC-Spep001, FITC-Spep002 or FITC-Spep003 and then further incubated for 24 hours. Thereafter, the cells were washed four times with HBSS and treated with 10 μg/mL H33342 (bisBenzimide H33342 trihydrochloride (B2261, Sigma)) and then further incubated at room temperature for 5 minutes. Finally, the cells were washed three times with HBSS. The cell penetration rate was checked using a super resolution confocal laser microscope (LSM800), and the result thereof is shown in FIG. 4A(i) to FIG. 4F(iv). Herein, the cells were treated only FITC (F1906, Invitrogen™) as a negative control, and FITC-TAT was used as a positive control.

In data set [3] the test system is HaCaT cells. In words: Dependence of cell penetration on ATP (flow cytometry). The note with it: pre-treated with 2-DG and NaN3. The procedure:
as §1
A test was conducted in the same conditions as those in Example 7 except that the cells were pre-treated with 2-DG (2-deoxyglucose, D6134, sigma) and NaN3 (sodium azide, 71289, sigma) one hour before treatment with FITC-TAT, FITC-Spep001, FITC-Spep002 or FITC-Spep003 to check the dependence of endocytosis on ATP. Then, the FITC fluorescence intensities of peptides penetrating into living cells were measured by flow cytometry as in Example 5, and the result thereof is shown in FIG. 7.

For another data set, the system named is HDF-N. As to the kind of experiment: Cytotoxicity assay of difunctional peptide (WST-1, microscopy). The note with it: 12.5 μM to 100 μM.
Assay in data set [4]: as above
The note with it: human, HDF-N cells, HDF-N, read-out: cell proliferation rate / survival rate (WST-1).

Data set [5] has as its system collagen synthesis in HDF-N cells. In words: Synthesis of collagen, PIP (procollagen Type 1C-peptide) ELISA. The settings on record: 12.5 μM, 24 hours. On the procedure:
HDF-N cells were inoculated at a concentration of 1×10^4 cells/well into a 96-well plate and incubated for 24 hours. Then, the medium was removed, followed by washing twice with PBS, and replaced with a serum-free medium. Thereafter, 12.5 μM KTTKS (SEQ ID NO: 5), Spep001-KTTKS (SEQ ID NO: 6) and pal-KTTKS were added to each well and then incubated for 24 hours. Then, 10 μL of the cell culture fluid was obtained and centrifuged at 800 rpm for 5 minutes. Thereafter, the degree of synthesis of collagen was checked using a PIP (procollagen Type 1C-peptide) ELISA kit (MK101, Takara), and the result thereof is shown in FIG. 10 and Table 8 below.

The test system of a further data set is HDF-N cells. The procedure: Cytotoxicity of the cell-penetrating multifunctional peptide according to Example 1 was checked. Specifically, HaCaT cells (human keratinocytes) were inoculated at a concentration of 1.5×10^4 cells/well into a 96-well plate and incubated for 24 hours. Then, the medium was removed, followed by washing once with PBS, and replaced with a serum-free medium. The cells were treated with Spep001 (SEQ ID NO: 1), Spep002 (SEQ ID NO: 8) or Spep003 (SEQ ID NO: 9) at a concentration of 0 μM, 25 μM, 50 μM, 100 μM or 200 μM and then further incubated for 24 hours. Herein, culture conditions were maintained at 37° C. with 5% CO2.
Also, at the time of completion of incubation, a WST-1 assay (Water Soluble Tetrazolium salt-1, EZ-assay kit, DoGenBio) was conducted. Specifically, 100 μL of a WST-1 solution was added to the well of cells after the completion of further incubation and then incubated for 3 hours. Thereafter, the absorbance at 450 nm was measured using a microplate spectrophotometer (Multiskan™ GO, thermo), and the result thereof is shown in FIG. 2B and Table 2 below.
HDF-N cells were treated with 12.5 μM KTTKS (SEQ ID NO: 5), Spep001-KTTKS (SEQ ID NO: 6) and pal-KTTKS which are peptides fabricated in Example 9. The appearance and proliferation rate of the cells were measured as in Example 3, and the results thereof are shown in FIG. 9A(i) to FIG. 9A(iv), FIG. 9B and Table 7 below.

“And” between values parts separate entries of the source, which are not always exact repeats. Equal values may be shown once. Ends that are not written are not given here. * marks the point of attachment. FITC = O=C1OC2(c3ccc(O)cc3Oc3cc(O)ccc32)c2ccc(NC(=S)*)cc21; Ahx = NCCCCCC(=O)O

On to “FITC-Ahx-RLRLRQRRRR ({FITC-Ahx}-RLRLRQRRRR) [FITC-Spep001, Spep001 labelled with FITC at the N-terminal amine group]”, for which, in the data set with HaCaT cells [1], the “cell penetration rate (FITC-positive cell count)” value was 36.3% and the “cell penetration rate based on TAT-FITC with a cell penetration rate of 100%” value is recorded as 133.95%. Also, the “amount penetrating into cells (fluorescent microscopic image)” value with HaCaT cells [2] is on record as “penetrates into cells in a greater amount than the positive control FITC-TAT”. For the same substance, the “FITC fluorescence intensity under ATP deficiency” value in the data set with HaCaT cells [3] is given as “decreased”.
For H-KTTKS-OH [KTTKS, reference compound], the “change in the appearance of the cells (microscope)” value in the data set on HDF-N and in the data set on HDF-N cells was “no change in the appearance” in each case. Moreover, the viability at 24 h, 12.5 µM in data set [4] (12.5 μM peptide) came to 104 ± 13%. The viability at 24 h, 25 µM in data set [4] (25 μM peptide) was 107 ± 20.1%. Also, the viability at 24 h, 50 µM in data set [4] (50 μM peptide) is 105 ± 4.28%. Also, the viability at 24 h, 100 µM in data set [4] (100 μM peptide) was 119 ± 11.6%. The “PIP (collagen in cell culture fluid)” value in data set [5] was 203.24 ng/mL and 203.24 ± 10.74 ng/mL. In addition, in data set [5], the “amount of collagen synthesized based on the control” value turned out to be 159.99%. Moreover, the “Cell viability(%)” value in the data set on HDF-N cells (human, 24 h, 12.5 μM) was 110.58%.

Values taken from patent publication US11951204B2, “Cell-penetrating peptides and composition including the same” (S-SKIN. CO., LTD., priority 2022, dated 2024).
